The structures appear in SMILES notation. Values joined by “and” are separate entries in the source; they are usually repeats but may differ in a detail not shown here. Identical values can stand only once.

One series has as its target HIV integrase (Human immunodeficiency virus type 1 group M subtype B, UniProt P04585). As to the kind of experiment: integrase inhibition assay (microtiter plate, substrate DNA / target DNA). It counts as biochemical. Particulars: integrase 30 pmol, incubated at 30° C. for 1 hour, OD at 405 nm; concentration at percent inhibition 50%. As to the method:
The inhibitory activities against integrase of the presnt compounds were determined by the assay described below.
(1) Preparation of DNA Solutions
Substrate DNA and target DNA synthesized by Amersham Pharmacia Biotech, which sequences were indicated below, were dissolved in KTE buffer (composition: 100 mM KCl, 1 mM EDTA, 10 mM Tris-HCl (pH 7.6)) at a concentration of 2 pmol/μl and 5 pmol/μl, respectively. The DNA solutions were heated and then slowly cooled so that they were annealed with each complement.
(Sequence of Substrate DNA)
(2) Calculations of the percent inhibitions (IC50 values of test compounds)
Streptavidin, obtained from Vector Laboratories, was dissolved in 0.1 M carbonate buffer (composition: 90 mM Na2CO3, 10 mM NaHCO3) at a concentration of 40 μg/ml. After coating each well of microtiter plates (obtained from NUNC) with 50 μl of the above solution at 4° C. over night, each well was washed twice with PBS (composition: […], 0.27 mM KCl, 0.43 mM Na2HPO4, 0.14 mM KH2PO4) and blocked with 300 μl of 1% skim milk in PBS for 30 min. Additionally, each well was washed twice with PBS and added with 50 μl of the substrate DNA solution (2 pmol/μl). The microtiter plates were kept at room temperature for 30 min. Then, each well was washed twice with PBS and once with H2O.
Subsequently, to the each well prepared above were added 45 μl of the reaction buffer prepared from 12 μl of the buffer (composition: 150 mM MOPS (pH 7.2), 75 mM MnCl2, 50 mM 2-mercaptoethanol, 25% glycerol, 500 μg/ml bovine serum albumin-fraction V), 1 μl of target DNA (5 pmol/μ), and 32 μl of the distilled water. Additionally, 6 μl of either a test compound in DMSO or DMSO for positive control (PC) was mixed with the above reaction buffer, then 9 μl of an integrase solution (30 pmol) was added thereto and the mixture was mixed well. To the well of negative control (NC) was added 9 μl of the integrase dilution buffer (composition: 20 mM MOPS (pH7.2), 400 mM potassium glutamate, 1 mM EDTA, 0.1% NP-40, 20% glycerol, 1 mM DTT, 4 M urea).
The microtiter plates were incubated at 30° C. for 1 hour. The reaction solution was removed and each well was washed twice with PBS. Subsequently, each well of the microtiter plates was filled with 100 μl of anti-digoxigenin antibody labeled with alkaline phosphatase (Sheep Fab fragment: obtained from Boehringer) and incubated at 30° C. for 1 hour. Then, each well was washed twice with 0.05% Tween20 in PBS and once with PBS. Next, 150 μl of the Alkaline phosphatase reaction buffer (composition: 10 mM p-Nitrophenylphosphate (obtained from Vector Laboratories), 5 mM MgCl2, 100 mM NaCl, 100 mM Tris-HCl (pH 9.5)) was added to each well. The microtiter plates were incubated at 30° C. for 2 hours and the reaction was terminated by the addition of 50 μl of 1 N NaOH solution. The optical density (OD) at 405 nm of each well was measured and the percent inhibition was determined by the following expression. The percent inhibition (%)=100[1−{(C abs.−NC abs.)/(PC abs.−NC abs.)}]
C abs.; the OD of the well of the test compound
NC abs.: the OD of the negative control (NC)
PC abs.: the OD of the positive control (PC)
When the percent inhibition (%) is X % at a concentration of x μg/ml and the percent inhibition (%) is Y % at a concentration of y μg/ml, one of which is more than 50% and the other is less than 50%, IC50 can be determined by the following expression. IC50 (μg/ml)=x−{(X−50)(x−y)/(X−Y)}
Compound No. in the Table 1 is the same as compound No. of the above Examples.
As for `CCC(=O)c1ncc2cc(Cc3ccc(F)cc3)cnc2c1O` [Compound A-19, 1-[3-(4-fluorobenzyl)-8-hydroxy-1,6-naphthylidin-7-yl]propan-1-one], the “MIA, IC50” value came to 0.12 µg/mL.

Still in this series, the particulars now being: integrase 30 pmol, incubated at 30° C. for 1 hour, OD at 405 nm; concentration at percent inhibition 50%; read-out: MIA, IC50 (ug/ml) (converted).
As to `COC(=O)c1cc(C(=O)NCCCO)c2cc(Cc3ccc(F)cc3)cnc2c1O` [Compound I-58, 3-(4-Fluorobenzyl)-8-hydroxy-5-(3-hydroxypropylcarbamoyl)quinoline-7-carboxylic acid methyl ester], the IC50 was 388 nM.
The same measure, in the same setting: to `COC(=O)c1nc(N2CCCCS2(=O)=O)c2cc(Cc3ccc(F)cc3)cnc2c1O` [Compound A-22, Methyl 3-(4-fluorobenzyl)-5-(1,1-dioxido-1,2-thiazinan-2-yl)-8-hydroxy-1,6-naphthylidine-7-carboxylate] belongs 427 nM.

System in a further series: not given
Experiment: not given
Conditions: not given
As to `COC(=O)c1cc(NC(=O)c2ccccc2)c2cc(Cc3ccc(F)cc3)cnc2c1O`, the melting point (in general, the temperature of the solid-liquid transition) lay within 247 to 249 °C.
`COC(=O)c1cc(C(=O)NCCC2CCOCC2)c2cc(Cc3ccc(F)cc3)cnc2c1O` registered a melting point of 198 to 199 °C.
On the same count and under the same terms, to `COC(=O)c1cc(C(=O)NCCN)c2cc(Cc3ccc(F)cc3)cnc2c1O` belongs 229 to 230 °C; to `CN(C)NC(=O)c1nc(-c2ccc(CO)cc2)c2cc(Cc3ccc(F)cc3)cnc2c1O`, 219 to 221 °C; to `COC(=O)c1cc(C(=O)NC2CCCC2)c2cc(Cc3ccc(F)cc3)cnc2c1O`, 221 to 222 °C.
On the same count and under the same terms, to `COC(=O)c1cc(CC(=O)O)c2cc(Cc3ccc(F)cc3)cnc2c1O` belongs 218 to 220 °C; to `COC(=O)c1nc(N2CCCCS2(=O)=O)c2cc(Cc3ccccc3)cnc2c1O`, 183 to 185 °C and 186 °C.
Turning to `COCCNC(=O)c1nc(C(=O)OC)c(O)c2ncc(Cc3ccc(F)cc3)cc12`, the melting point was 145 to 146 °C.
The same measure, in the same setting: to `COC(=O)c1cc(C(=O)NNC(=O)c2ccccn2)c2cc(Cc3ccc(F)cc3)cnc2c1O` belongs 164 to 166 °C; to `CN(C)NC(=O)c1nc(C#CCNS(C)(=O)=O)c2cc(Cc3ccc(F)cc3)cnc2c1O`, 229 to 230 °C (dec.); to `COC(=O)c1cc(C(N)=O)c2cc(Cc3ccc(F)cc3)cnc2c1OC(C)=O`, 206 °C.
On the same count and under the same terms, to `CC(=O)N1CCC(OC(=O)c2cc(C(=O)NN(C)C)c3cc(Cc4ccc(F)cc4)cnc3c2O)CC1` belongs 92 to 93 °C; to `COC(=O)c1cc(C=CC(=O)O)c2cc(Cc3ccc(F)cc3)cnc2c1O`, 235 to 237 °C.
The molecule `COC(=O)C=Cc1cc(C(=O)OC)c(O)c2ncc(Cc3ccc(F)cc3)cc12` had a melting point of 139 to 141 °C.
As for `COCCNC(=O)c1nc(C#CCNS(C)(=O)=O)c2cc(Cc3ccc(F)cc3)cnc2c1O`, the melting point was 198 °C.
`CC(=O)N1CCC(OC(=O)c2nc(C#CCNS(C)(=O)=O)c3cc(Cc4ccc(F)cc4)cnc3c2O)CC1` returned a melting point of 192 to 193 °C.
In the case of `COC(=O)c1cc(Cc2cc(C(=O)OC)c(O)c3ncc(Cc4ccc(F)cc4)cc23)c2cc(Cc3ccc(F)cc3)cnc2c1O`, the melting point was in the range of 244 to 245 °C.
On the same count and under the same terms, to `COCCCC(=O)c1cc(C(=O)O)c2cc(Cc3ccc(F)cc3)cnc2c1O` belongs 226 to 228 °C; to `COCCC(=O)Nc1cc(C(=O)OC2CCN(C(C)=O)CC2)c(O)c2ncc(Cc3ccc(F)cc3)cc12`, 89 to 90 °C.
Turning to `COC(=O)c1cc(C(=O)NC2CCNCC2)c2cc(Cc3ccc(F)cc3)cnc2c1O`, the melting point was 232 to 233 °C.
Still for that read-out and setting: to `COC(=O)c1cc(C(=O)NNS(C)(=O)=O)c2cc(Cc3ccc(F)cc3)cnc2c1O` belongs greater than 250 °C.
Same read-out and setting: to `CNNC(=O)c1cc(C(=O)OC)c(O)c2ncc(Cc3ccc(F)cc3)cc12` belongs 188 to 189 °C.
On the same count and under the same terms, to `COC(=O)c1cc(C(=O)N2CCC(CO)CC2)c2cc(Cc3ccc(F)cc3)cnc2c1O` belongs 161 to 162 °C; to `COC(=O)c1nc(NC(=O)Nc2ccccc2)c2cc(Cc3ccc(F)cc3)cnc2c1O`, 254 to 255 °C.
Take `COC(=O)c1nc(NS(=O)(=O)NC(=O)OC(C)C)c2cc(Cc3ccc(F)cc3)cnc2c1O`: the melting point lay in the range of 170 to 172 °C.
Turning to `COC(=O)c1nc(N2CCCC2=O)c2cc(Cc3ccc(F)cc3)cnc2c1O`, the melting point fell in the range of 260 to 262 °C.
Still for that read-out and setting: next, `COC(=O)c1cc(C(C)=O)c2cc(Cc3ccc(F)cc3)cnc2c1O`: 166 to 168 °C; `COCCCNC(=O)c1cc(C(=O)OC)c(O)c2ncc(Cc3ccc(F)cc3)cc12`: 166 to 167 °C; `COC(=O)c1cc(C(=O)NCC(N)=O)c2cc(Cc3ccc(F)cc3)cnc2c1O`: 247 to 248 °C.
Same read-out and setting: next, `COC(=O)c1cc(-c2ccccc2C(=O)O)c2cc(Cc3ccc(F)cc3)cnc2c1O`: 250 to 252 °C; `CNC(=S)Nc1cc(C(=O)OC)c(O)c2ncc(Cc3ccc(F)cc3)cc12`: 189 to 191 °C.
In turn, `O=C(NCc1ccc(F)cc1)c1c(O)c2ncc(Cc3ccccc3)cc2[nH]c1=O` displayed a melting point greater than 300 °C.
For the molecule `CCN(C=O)c1cc(C(=O)OC)c(O)c2ncc(Cc3ccc(F)cc3)cc12`, the melting point was 90 to 91 °C.
Same read-out and setting: to `COC(=O)c1cc(C(=O)NCCOc2ccccc2)c2cc(Cc3ccc(F)cc3)cnc2c1O` belongs 194 to 195 °C; to `COC(=O)c1cc(CC(N)=O)c2cc(Cc3ccc(F)cc3)cnc2c1O`, 209 to 211 °C.
The same measure, in the same setting: next, `COC(=O)c1cc(C(=O)NCC(C)C)c2cc(Cc3ccc(F)cc3)cnc2c1O`: 178 to 179 °C; `CCN(CCOC)C(=O)c1cc(C(=O)OC)c(O)c2ncc(Cc3ccc(F)cc3)cc12`: 90 to 91 °C.
The molecule `COC(=O)c1cc(C(=O)NN)c2cc(Cc3ccc(F)cc3)cnc2c1O` yielded a melting point of 156 to 157 °C.
The same measure, in the same setting: to `COCc1cc(C(=O)OC)c(O)c2ncc(Cc3ccc(F)cc3)cc12` belongs 110 to 111 °C; to `COC(=O)c1cc(NC(=O)Cc2ccc(F)cc2)c2cc(Cc3ccc(F)cc3)cnc2c1O`, 239 to 240 °C.
Same read-out and setting: next, `COC(=O)c1cc(C(=O)N2CCCC(=O)C2)c2cc(Cc3ccc(F)cc3)cnc2c1O`: 228 to 229 °C; `COC(=O)c1cc(NC(=O)C(F)(F)F)c2cc(Cc3ccc(F)cc3)cnc2c1O`: 191 to 192 °C.
Take `CCN(c1cc(C(=O)OC)c(O)c2ncc(Cc3ccc(F)cc3)cc12)S(C)(=O)=O`: the melting point fell in the range of 149 to 150 °C.
As for `COC(=O)c1cc(C(=O)NCCOCCO)c2cc(Cc3ccc(F)cc3)cnc2c1O`, the melting point was 162 to 163 °C.
The same measure, in the same setting: to `COC(=O)c1cc(NC(=N)N)c2cc(Cc3ccc(F)cc3)cnc2c1O.Cl` belongs 261.5 to 262.5 °C; to `COC(=O)c1cc(NC(=O)C2CCCCC2)c2cc(Cc3ccc(F)cc3)cnc2c1O`, 250 to 251 °C.
Still for that read-out and setting: to `COC(=O)c1cc(C(=O)NCCN(C)C)c2cc(Cc3ccc(F)cc3)cnc2c1O` belongs 115 to 116 °C; to `COC(=O)c1cc(C(=O)NNC=O)c2cc(Cc3ccc(F)cc3)cnc2c1O`, 249 to 250 °C; to `COC(=O)c1cc(N2CCNC2=O)c2cc(Cc3ccc(F)cc3)cnc2c1O`, 248 to 250 °C.

The values are drawn from patent US7358249B2, “Heterocyclic compounds having inhibitory activity against HIV integrase” (Shionogi & Co., Ltd., priority 2002, dated 2008).
